ChEMBL document CHEMBL1201862, “PubChem BioAssay data set” (2004)
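These data come from cells grown in 96-well plates and exposed to compound for 48 hours at five concentrations. The concentration for 50% growth inhibition is given as GI50.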 Active and inactive are the calls of the source. Cut-off read from the data, not from the text of the source: active = GI50 up to about 1.1 µM and inactive = higher.

What was measured:
Assay in all cases: inhibition of tumour cell growth, NCI panel, 48 h
EKVX = tested on: EKVX
KM12 = tested on: KM12
DLD-1 = tested on: DLD-1
SK-OV-3 = tested on: SK-OV-3
M19-MEL = tested on: M19-MEL
TK-10 = tested on: TK-10
SF-295 = tested on: SF-295
CCRF-CEM = tested on: CCRF-CEM
COLO 205 = tested on: COLO 205
SF-539 = tested on: SF-539
A498 = tested on: A498
IGROV-1 = tested on: IGROV-1
OVCAR-3 = tested on: OVCAR-3
ACHN = tested on: ACHN
786-0 = tested on: 786-0
OVCAR-5 = tested on: OVCAR-5
SN12C = tested on: SN12C
UACC-257 = tested on: UACC-257
LXFL 529 = tested on: LXFL 529
NCI-H522 = tested on: NCI-H522
HCT-116 = tested on: HCT-116
DMS-114 = tested on: DMS-114
LOX IMVI = tested on: LOX IMVI
SK-MEL-5 = tested on: SK-MEL-5
NCI-H226 = tested on: NCI-H226
SW-620 = tested on: SW-620
Malme-3M = tested on: Malme-3M
SNB-19 = tested on: SNB-19
HOP-62 = tested on: HOP-62
MOLT-4 = tested on: MOLT-4
NCI-H23 = tested on: NCI-H23
UO-31 = tested on: UO-31
HCC 2998 = tested on: HCC 2998
CAKI-1 = tested on: CAKI-1
RXF 393 = tested on: RXF 393
HOP-18 = tested on: HOP-18
NCI-H460 = tested on: NCI-H460
U-251 = tested on: U-251
UACC-62 = tested on: UACC-62
OVCAR-8 = tested on: OVCAR-8
HOP-92 = tested on: HOP-92
SNB-75 = tested on: SNB-75
A549 = tested on: A549
XF498 = tested on: XF498
SK-MEL-2 = tested on: SK-MEL-2
SK-MEL-28 = tested on: SK-MEL-28
HT-29 = tested on: HT-29
HL-60 = tested on: HL-60
K562 = tested on: K562
HCT-15 = tested on: HCT-15
OVCAR-4 = tested on: OVCAR-4
SF-268 = tested on: SF-268
M14 = tested on: M14
DMS-273 = tested on: DMS-273
KM-20L2 = tested on: KM-20L2
SR = tested on: SR

For CC(C)(C)c1ccc(C(O)c2ccc(C(C)(C)C)cc2)cc1, the GI50 (EKVX) was 17.7 µM (inactive), the GI50 (KM12) was 15.6 µM (inactive) and the GI50 (DLD-1) was 14.6 µM (inactive). For the same compound, the GI50 (SK-OV-3) was 14.7 µM (inactive), the GI50 (M19-MEL) was 13.7 µM (inactive) and the GI50 (TK-10) was 21.1 µM (inactive). The GI50 (SF-295) was 14 µM (inactive), the GI50 (CCRF-CEM) was 16.9 µM (inactive) and the GI50 (COLO 205) was 13.6 µM (inactive). For the same compound, the GI50 (SF-539) was 17.3 µM (inactive), the GI50 (A498) was 18.7 µM (inactive) and the GI50 (IGROV-1) was 16.1 µM (inactive). For the same compound, the GI50 (OVCAR-3) was 14.5 µM (inactive), the GI50 (ACHN) was 16.6 µM (inactive) and the GI50 (786-0) was 15.5 µM (inactive). For the same compound, the GI50 (OVCAR-5) was 16.6 µM (inactive), the GI50 (SN12C) was 13.1 µM (inactive) and the GI50 (UACC-257) was 18.8 µM (inactive). The GI50 (LXFL 529) was 15.5 µM (inactive), the GI50 (NCI-H522) was 10.2 µM (inactive) and the GI50 (HCT-116) was 12.1 µM (inactive). For the same compound, the GI50 (DMS-114) was 12.7 µM (inactive), the GI50 (LOX IMVI) was 14.7 µM (inactive) and the GI50 (SK-MEL-5) was 16.6 µM (inactive). The GI50 (NCI-H226) was 4.72 µM (inactive), the GI50 (SW-620) was 14.6 µM (inactive) and the GI50 (Malme-3M) was 15.8 µM (inactive). For the same compound, the GI50 (SNB-19) was 17.9 µM (inactive), the GI50 (HOP-62) was 16.3 µM (inactive) and the GI50 (MOLT-4) was 17.6 µM (inactive). For the same compound, the GI50 (NCI-H23) was 12.1 µM (inactive), the GI50 (UO-31) was 16 µM (inactive) and the GI50 (HCC 2998) was 21 µM (inactive). For the same compound, the GI50 (CAKI-1) was 15.1 µM (inactive), the GI50 (RXF 393) was 17.1 µM (inactive) and the GI50 (HOP-18) was 17.5 µM (inactive). The GI50 (NCI-H460) was 12.8 µM (inactive), the GI50 (U-251) was 13.1 µM (inactive) and the GI50 (UACC-62) was 15.8 µM (inactive). For the same compound, the GI50 (OVCAR-8) was 14.8 µM (inactive), the GI50 (HOP-92) was 12.6 µM (inactive) and the GI50 (SNB-75) was 19.2 µM (inactive). The GI50 (A549) was 14.2 µM (inactive), the GI50 (XF498) was 15.1 µM (inactive) and the GI50 (SK-MEL-2) was 15.2 µM (inactive). The GI50 (SK-MEL-28) was 16.8 µM (inactive), the GI50 (HT-29) was 10.4 µM (inactive) and the GI50 (HL-60) was 17.1 µM (inactive). For the same compound, the GI50 (K562) was 14.7 µM (inactive), the GI50 (HCT-15) was 12.1 µM and the GI50 (OVCAR-4) was 15.2 µM (inactive). For the same compound, the GI50 (SF-268) was 20 µM (inactive), the GI50 (M14) was 15 µM (inactive) and the GI50 (DMS-273) was 12.6 µM (inactive). The GI50 (KM-20L2) was 17.7 µM (inactive) and the GI50 (SR) was 23.9 µM (inactive).
